Test results published in patent US9474730B2, “Methods and compositions for use with K-ras mediated disorders” (Board of Regents of the University of Texas System, priority 2012, dated 2016).
Counter-ions that a name gives are not always drawn.

What was measured:
[1] = molecular target: T1, GFP-CTK (mGFP-tagged C-terminal region of K-ras) in MDCK cells (Homo sapiens, UniProt P01116); experiment: High throughput cell-based screen: plasma membrane localization of GFP-CTK; parameters: species or system canine; settings: fendiline HCl 4 ug/ml, 48 h, MDCK
T1 construct: hypervariable region of K-ras (amino acids 166-188) cloned onto the carboxy terminus of GFP; expressed in transfected cells
Method: FIG. 1: Illustrates results of a high throughput cell-based screening of chemical libraries: Madin-Darby Canine Kidney epithelial cells (MDCK) expressing monomeric green fluorescent protein (mGFP)-tagged C-terminal region of K- or H-ras (GFP-CTK and GFP-CTH) were seeded in 96 well plates and treated with drug libraries for 48 h. Cells were then fixed with paraformaldehyde and imaged by BD Pathway Imager in confocal mode; shown are representative images of cells treated with vehicle, […], and 10 μM FTI-276; wherein experimentation was performed in accordance with principles described herein;
In accordance with some embodiments described herein, wild type MDCK cells or MDCK cells expressing monomeric green fluorescent protein (mGFP)-tagged C-terminal region of K-ras or H-ras (GFP-CTK and GFP-CTH respectively) were seeded in triplicate in 96 well plates (Matrical) at a density of 30,000 cells/well and incubated for 24 h at 37° C. Compounds were individually added to test cells at a concentration of 4 μg/mL (concentration of DMSO 1%) and incubated for a further 48 h.
Cells were then fixed with 4% paraformaldehyde and stored in PBS at 4° C. until imaged. Plates were imaged using a BD Pathway High-Throughput Bioimager. Images were acquired by a 3×3 montage with 20× objective lens using GFP-confocal mode. […]

[2] = molecular target: T2, GFP-K-rasG12V in MDCK or BHK cells (Homo sapiens, UniProt P01116, G12V); experiment: Confocal fluorescence microscopy of GFP-tagged full length constitutively active Ras (G12V); format: cell-based, canine (MDCK), hamster (BHK); settings: 48 h
T2 construct: MDCK and BHK cells expressing GFP-tagged full length constitutively active Ras (G12V) proteins; expressed in transfected cells
Method: FIG. 2: Illustrates that fendiline HCl mislocalizes GFP-K-rasG12V but not GFP-H-rasG12V: (A) MDCK or BHK [Baby Hamster Kidney] cells expressing GFP-K-rasG12V or GFP-H-rasG12V were grown on cover slips, treated with vehicle or fendiline HCl (4 μg/mL for MDCK and 6 μg/mL for BHK) for 48 h and fixed with paraformaldehyde. Cells were imaged using a confocal microscope. (B) BHK cells expressing GFP-K-rasG12V or GFP-H-rasG12V (green) were treated with vehicle or fendiline HCl (6 μg/mL) for 48 h. Following treatment, cells were fixed and immuno-labeled with antibodies against PDI (ER marker-red) or p58 (golgi marker-red). Colocalization between GFP and the respective marker protein is shown in yellow. Shown are representative images from 3 independent experiments wherein experimentation was performed in accordance with principles described herein;
Cells were further analyzed using fluorescence microscopy, where cells were grown on coverslips, treated with 1% vehicle (DMSO) or varying concentrations of selected compounds for 48 h, and fixed with 4% paraformaldehyde. The coverslips were mounted in Mowiol® and visualized by confocal microscopy (Nikon A1) using a 60× objective. The cells were immuno-staining, where cells were fixed, permeabilized in 0.1% Triton in PBS for 30 min, and blocked with 0.2% bovine serum albumin and 0.2% fish skin gelatin in PBS for 30 min. […]

[3] = tested on: cells expressing constitutively active N-Ras; experiment: Signaling downstream of oncogenic N-ras; format: cell-based; settings: data not shown
Method: Preparation of whole-cell lysates: cells were lysed in Buffer B (50 mM Tris [pH 7.5], 75 mM NaCl, 25 mM NaF, 5 mM MgCl2, 5 mM EGTA, 1 mM dithiothreitol, 100 μM NaVO4, 1% Nonidet P-40 plus protease inhibitors). Cellular fractionation: cells were incubated in Buffer A (10 mm Tris-HCl, pH 7.5, 25 mm NaF, 5 mm MgCl2, 1 mm EGTA, 1 mm dithiothreitol, 100 μm NaVO4 plus protease inhibitors) for 30 minutes on ice and lysed by passing through a 27 G needle 30 times. The post nuclear supernatant was centrifuged at 100,000 g for 30 minutes and the membrane pellet was resuspended in Buffer A containing 1% Triton X-100.
Quantification of intensities was performed using FluorChemQ software.

[4] = tested on: human oral cancer cells, PC3 prostate cancer cells and MDCK cells; settings: cited from earlier work

## CC(NCCC(c1ccccc1)c1ccccc1)c1ccccc1 (centres unmarked) [fendiline HCl]
[1]
  localization of GFP-CTK: specifically affected localization of GFP-CTK
[2]; BHK cells, 6 μg/mL, immunofluorescence
  localization of GFP-K-rasG12V relative to ER (PDI) and Golgi (p58) markers: partially mislocalizes to the ER and golgi
[2]; GFP-tagged full length Ras (G12V), 4 μg/mL for MDCK and 6 μg/mL for BHK
  inhibition of plasma membrane localization, K isoform compared to H and N: more potent inhibitor of plasma membrane localization of the K isoform as compared to H (FIG. 2A) and N
[3]
  signaling downstream of oncogenic N-ras: had no effect on signaling downstream of oncogenic N-ras
[4]
  intracellular Ca2+: increase intracellular Ca^2+
